5 molecules from patent publication US12122816B2, “Long acting peptide tyrosine tyrosine (PYY) analogs and methods of use” (Intarcia Therapeutics, Inc., priority 2020, dated 2024) can be followed below.

What all share (assay): NPY receptor functional assay (cAMP, HEK-CNG cells, ACTOne membrane potential dye)
Holding throughout (format): cell-based

The target in one assay is T1, human Y5 receptor (Homo sapiens, UniProt Q15761).
T1 sequence (Q15761 1-445): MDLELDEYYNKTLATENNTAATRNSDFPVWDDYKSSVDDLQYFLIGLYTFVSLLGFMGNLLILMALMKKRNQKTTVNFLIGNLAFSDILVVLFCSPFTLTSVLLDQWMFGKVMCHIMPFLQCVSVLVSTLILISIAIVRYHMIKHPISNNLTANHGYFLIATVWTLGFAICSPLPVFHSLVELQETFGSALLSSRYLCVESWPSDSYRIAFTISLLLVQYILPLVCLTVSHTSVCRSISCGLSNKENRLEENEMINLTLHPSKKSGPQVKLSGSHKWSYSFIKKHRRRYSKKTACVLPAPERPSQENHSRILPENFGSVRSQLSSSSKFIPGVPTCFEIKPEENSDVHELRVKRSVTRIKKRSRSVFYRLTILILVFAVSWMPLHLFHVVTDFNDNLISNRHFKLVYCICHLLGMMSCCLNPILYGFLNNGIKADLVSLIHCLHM
The note with it: NPY5R pEC50, HEK-CNG cells; standard NPY; species (human or rat) not given. An excerpt: (§1) The NPY family of G-protein coupled receptors include Y1, Y2, Y4, and Y5 in humans and rats. […] Following agonist binding, the receptor-G protein complex activates a downstream intracellular signaling cascade which leads to inhibition of adenylate cyclase and a reduction in intracellular cAMP levels.
(§2) HEK-CNG cells stably expressing the human or rat Y1, Y2, Y4 or Y5 receptors (Codex Biosolutions) were used to characterize the functional potency of peptide agonists using the ActOne™ membrane potential dye kit (Codex Biosolutions). In addition to each NPY receptor, each cell line encodes a proprietary exogenous Cyclic Nucleotide-Gated (CNG) channel (Codex Biosolutions). The channel is activated by elevated intracellular levels of cAMP, resulting in ion flux and cell membrane depolarization which can be detected with a calcium sensitive dye or fluorescent membrane potential (MP) dye. Cells were carried in growth media containing 90% DMEM, 10% FBS, 250 mcg/mL G418 and 1 mcg/mL puromycin for no more than 15 passages.
(§3) Prior to testing, cells were counted and dispensed at 14,000 cells per well (Y1, Y4 and Y5) or 28,000 cells per well (Y2) into black 384 well Poly-D-Lysine plates at 20 mcL per well. Covered plates were then incubated at room temperature for 30 minutes followed by an overnight incubation at 37° C. in 5% C02. The following day, media was removed and wells were washed once with 40 mcL Dulbecco's phosphate buffered saline. […] Ten microliters of experimental peptide or peptide standard was added in triplicate to wells and incubated for 50 minutes at room temperature in the dark. Following this incubation step, plates were read again as before (final read).
(§4) NPY receptor activation, leading to a reduction in intracellular cAMP levels, is detected as a decrease in isoproteranol induced fluorescent signal. Peptide standard and experimental values were initially transformed in excel using the formula: final read/initial read. Transformed values were then normalized to receptor specific standard values (1×10−13 M minimum and 1×10−7 M maximum) using the formula: (test value−standard minavg)/(standard maxavg−standard minavg)*100. […] Normalized data was analyzed from triplicate tests and used to estimate the EC50 for each test peptide on each receptor. Data was fit in GraphPad Prism software (v8.2.1) using a 3-parameter logistic curve model: Y=Bottom+(Top−Bottom)/(1+10^((LogEC50−X))). EC50 values were converted to pEC50 values using the formula: pEC50=−Log(EC50).

The next assay concerns the target T2, human Y2 receptor (Homo sapiens, UniProt P49146).
T2 sequence (P49146 1-381): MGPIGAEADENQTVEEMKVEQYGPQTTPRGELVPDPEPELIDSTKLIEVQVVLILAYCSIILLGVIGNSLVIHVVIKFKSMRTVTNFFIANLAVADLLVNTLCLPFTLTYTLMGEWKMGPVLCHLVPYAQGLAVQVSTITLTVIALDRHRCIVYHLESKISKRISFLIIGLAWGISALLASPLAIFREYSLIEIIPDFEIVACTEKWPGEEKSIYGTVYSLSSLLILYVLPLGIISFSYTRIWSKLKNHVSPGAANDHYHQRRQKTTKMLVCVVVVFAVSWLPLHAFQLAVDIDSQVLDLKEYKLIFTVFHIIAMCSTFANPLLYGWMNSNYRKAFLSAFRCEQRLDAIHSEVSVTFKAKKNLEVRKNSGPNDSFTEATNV
The note with it: NPY2R pEC50, HEK-CNG cells; standard PYY(3-36); species (human or rat) not given.
Description: as §1, §2, §3, §4

Another assay has as its target human Y4 receptor (Homo sapiens, UniProt P50391). The note with it: standard PP, species (human or rat) not given.
Description: as §1, §2, §3, §4

The structures appear in SMILES notation. Starred links: 1 amine or outer side, 2 acyl side, 3 side chain; linkers in the order of their positions; H or OH if unused. Non-standard residues stand in square brackets, D forms with d. Residues, ends and D or L forms follow the SMILES beside them. Groups on a side chain read outwards from the residue. *: point of attachment. C20 diacid = O=C(O)CCCCCCCCCCCCCCCCCCC(=O)*; γGlu = O=C(O)[C@H](CCC(=O)[*:2])N[*:1]; NMeY = CN[C@@H](Cc1ccc(O)cc1)C(=O)O

Sequence of human Y4 receptor (P50391 whole entry): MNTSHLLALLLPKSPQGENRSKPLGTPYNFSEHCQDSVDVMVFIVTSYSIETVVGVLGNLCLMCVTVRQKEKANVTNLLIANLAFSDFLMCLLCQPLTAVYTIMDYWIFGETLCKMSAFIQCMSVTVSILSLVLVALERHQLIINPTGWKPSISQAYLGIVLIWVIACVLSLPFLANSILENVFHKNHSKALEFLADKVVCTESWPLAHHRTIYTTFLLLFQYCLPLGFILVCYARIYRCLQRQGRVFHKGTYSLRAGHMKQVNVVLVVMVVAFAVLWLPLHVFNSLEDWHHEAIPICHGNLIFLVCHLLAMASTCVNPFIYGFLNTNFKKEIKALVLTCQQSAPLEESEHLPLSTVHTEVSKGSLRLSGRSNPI

In the case of `CC(C)C[C@H](NC(=O)[C@H](Cc1ccc(O)cc1)NC(=O)[C@H](Cc1c[nH]cn1)NC(=O)[C@H](CCCNC(=N)N)NC(=O)[C@H](C)NC(=O)[C@H](CC(=O)O)NC(=O)[C@H](C)NC(=O)[C@H](Cc1ccc(O)cc1)NC(=O)[C@H](Cc1ccc(O)cc1)NC(=O)[C@H](CCCNC(=N)N)NC(=O)[C@H](CC(N)=O)NC(=O)[C@H](Cc1c[nH]c2ccccc12)NC(=O)[C@H](CCC(=O)O)NC(=O)[C@H](CCC(=O)O)NC(=O)[C@@H]1CCCN1C(=O)[C@H](CO)NC(=O)[C@H](C)NC(=O)[C@H](CC(=O)O)NC(=O)[C@H](CCCCN)NC(=O)CNC(=O)[C@@H]1CCCN1C(=O)[C@H](C)NC(=O)[C@H](CCC(=O)O)NC(=O)[C@@H]1CCCN1C(=O)[C@H](CCCCNC(=O)CC[C@H](NC(=O)CC[C@H](NC(=O)CCCCCCCCCCCCCCCCCCC(=O)O)C(=O)O)C(=O)O)NC(=O)[C@@H]1CCCN1)C(=O)N[C@@H](CC(N)=O)C(=O)N[C@@H](Cc1c[nH]c2ccccc12)C(=O)N[C@@H](CC(C)C)C(=O)N[C@H](C(=O)N[C@@H](CCCNC(=N)N)C(=O)N[C@@H](CCC(N)=O)C(=O)N[C@@H](CCCNC(=N)N)C(=O)N(C)[C@@H](Cc1ccc(O)cc1)C(N)=O)[C@@H](C)O` [Compound A5], the EC50 (commonly the concentration that produces a half-maximal response) was 10 nM on human Y5 receptor and 20 nM at human Y2 receptor. Also, at human Y4 receptor, the “NPY4R pEC50” value was “inactive”.

With `CC(C)C[C@H](NC(=O)[C@H](Cc1ccc(O)cc1)NC(=O)[C@H](Cc1c[nH]cn1)NC(=O)[C@H](CCCNC(=N)N)NC(=O)[C@H](C)NC(=O)[C@H](CC(=O)O)NC(=O)[C@H](C)NC(=O)[C@H](Cc1ccc(O)cc1)NC(=O)[C@H](Cc1ccc(O)cc1)NC(=O)[C@H](CCCNC(=N)N)NC(=O)[C@H](CC(N)=O)NC(=O)[C@H](Cc1c[nH]c2ccccc12)NC(=O)[C@H](CCC(=O)O)NC(=O)[C@H](CCC(=O)O)NC(=O)[C@@H]1CCCN1C(=O)[C@H](CO)NC(=O)[C@H](C)NC(=O)[C@H](CC(=O)O)NC(=O)[C@H](CCCCN)NC(=O)CNC(=O)[C@@H]1CCCN1C(=O)[C@H](C)NC(=O)[C@H](CCCCNC(=O)CC[C@H](NC(=O)CC[C@H](NC(=O)CCCCCCCCCCCCCCCCCCC(=O)O)C(=O)O)C(=O)O)NC(=O)[C@@H]1CCCN1C(=O)[C@H](CCCCN)NC(=O)[C@@H]1CCCN1)C(=O)N[C@@H](CC(N)=O)C(=O)N[C@@H](Cc1c[nH]c2ccccc12)C(=O)N[C@@H](CC(C)C)C(=O)N[C@H](C(=O)N[C@@H](CCCNC(=N)N)C(=O)N[C@@H](CCC(N)=O)C(=O)N[C@@H](CCCNC(=N)N)C(=O)N(C)[C@@H](Cc1ccc(O)cc1)C(N)=O)[C@@H](C)O` [Compound A6], the EC50 was 20 nM at human Y5 receptor and 1.26 nM on human Y2 receptor. For the same molecule, the “NPY4R pEC50” value on human Y4 receptor is “inactive”.

`CC(C)C[C@H](NC(=O)[C@H](Cc1ccc(O)cc1)NC(=O)[C@H](Cc1c[nH]cn1)NC(=O)[C@H](CCCNC(=N)N)NC(=O)[C@H](C)NC(=O)[C@H](CC(=O)O)NC(=O)[C@H](C)NC(=O)[C@H](Cc1ccc(O)cc1)NC(=O)[C@H](Cc1ccc(O)cc1)NC(=O)[C@H](CCCNC(=N)N)NC(=O)[C@H](CC(N)=O)NC(=O)[C@H](CC(C)C)NC(=O)[C@H](CCC(=O)O)NC(=O)[C@H](CCC(=O)O)NC(=O)[C@@H]1CCCN1C(=O)[C@H](CO)NC(=O)[C@H](C)NC(=O)[C@H](CC(=O)O)NC(=O)[C@H](CCCCN)NC(=O)[C@H](CCCCNC(=O)CC[C@H](NC(=O)CC[C@H](NC(=O)CCCCCCCCCCCCCCCCCCC(=O)O)C(=O)O)C(=O)O)NC(=O)[C@@H]1CCCN1C(=O)[C@H](C)NC(=O)[C@H](CCC(=O)O)NC(=O)[C@@H]1CCCN1C(=O)[C@H](CCCCN)NC(=O)[C@@H]1CCCN1)C(=O)N[C@@H](CC(N)=O)C(=O)N[C@@H](Cc1c[nH]c2ccccc12)C(=O)N[C@@H](CC(C)C)C(=O)N[C@H](C(=O)N[C@@H](CCCNC(=N)N)C(=O)N[C@@H](CCC(N)=O)C(=O)N[C@@H](CCCNC(=N)N)C(=O)N[C@@H](Cc1ccccc1)C(N)=O)[C@@H](C)O` [Compound A64] (H-PKPEAPK([γGlu-γGlu-C20 diacid])KDASPEELNRYYADARHYLNWLTRQRF-NH2; N-terminus assumed): the values for the EC50 on human Y5 receptor and on human Y2 receptor were 12.6 nM and 2.51 nM, respectively. Moreover, the “NPY4R pEC50” value at human Y4 receptor was “inactive”.

`CC(C)C[C@H](NC(=O)[C@H](CC(=O)O)NC(=O)[C@H](C)NC(=O)[C@H](Cc1ccc(O)cc1)NC(=O)[C@H](Cc1ccc(O)cc1)NC(=O)[C@H](CCCNC(=N)N)NC(=O)[C@H](CC(N)=O)NC(=O)[C@H](Cc1c[nH]c2ccccc12)NC(=O)[C@H](CCC(=O)O)NC(=O)[C@H](CCC(=O)O)NC(=O)[C@@H]1CCCN1C(=O)[C@H](CO)NC(=O)[C@H](C)NC(=O)[C@H](CC(=O)O)NC(=O)[C@H](CCCCN)NC(=O)CNC(=O)[C@@H]1CCCN1C(=O)[C@H](C)NC(=O)[C@H](CCC(=O)O)NC(=O)[C@@H]1CCCN1C(=O)[C@H](CCCCN)NC(=O)[C@@H]1CCCN1)C(=O)N[C@@H](CCCCNC(=O)CC[C@H](NC(=O)CC[C@H](NC(=O)CCCCCCCCCCCCCCCCCCC(=O)O)C(=O)O)C(=O)O)C(=O)N[C@@H](Cc1c[nH]cn1)C(=O)N[C@@H](Cc1ccc(O)cc1)C(=O)N[C@@H](CC(C)C)C(=O)N[C@@H](CC(N)=O)C(=O)N[C@@H](Cc1c[nH]c2ccccc12)C(=O)N[C@@H](CC(C)C)C(=O)N[C@H](C(=O)N[C@@H](CCCNC(=N)N)C(=O)N[C@@H](CCC(N)=O)C(=O)N[C@@H](CCCNC(=N)N)C(=O)N[C@@H](Cc1ccccc1)C(N)=O)[C@@H](C)O` [Compound A53]: the EC50 was 50.1 nM on human Y5 receptor and 2 nM on human Y2 receptor. Further, the “NPY4R pEC50” value on human Y4 receptor was “inactive”.

Regarding `CC(C)C[C@H](NC(=O)[C@H](Cc1ccc(O)cc1)NC(=O)[C@H](Cc1c[nH]cn1)NC(=O)[C@H](CCCNC(=N)N)NC(=O)[C@H](C)NC(=O)[C@H](CC(=O)O)NC(=O)[C@H](C)NC(=O)[C@H](Cc1ccc(O)cc1)NC(=O)[C@H](Cc1ccc(O)cc1)NC(=O)[C@H](CCCNC(=N)N)NC(=O)[C@H](CC(N)=O)NC(=O)[C@H](Cc1c[nH]c2ccccc12)NC(=O)[C@H](CCC(=O)O)NC(=O)[C@H](CCC(=O)O)NC(=O)[C@@H]1CCCN1C(=O)[C@H](CO)NC(=O)[C@H](C)NC(=O)[C@H](CC(=O)O)NC(=O)[C@H](CCCCN)NC(=O)CNC(=O)[C@@H]1CCCN1C(=O)[C@H](C)NC(=O)[C@H](CCC(=O)O)NC(=O)[C@@H]1CCCN1C(=O)[C@H](CCCCN)NC(=O)[C@@H]1CCCN1C(=O)[C@@H](N)CCCCNC(=O)CC[C@H](NC(=O)CC[C@H](NC(=O)CCCCCCCCCCCCCCCCCCC(=O)O)C(=O)O)C(=O)O)C(=O)N[C@@H](CC(N)=O)C(=O)N[C@@H](Cc1c[nH]c2ccccc12)C(=O)N[C@@H](CC(C)C)C(=O)N[C@H](C(=O)N[C@@H](CCCNC(=N)N)C(=O)N[C@@H](CCC(N)=O)C(=O)N[C@@H](CCCNC(=N)N)C(=O)N(C)[C@@H](Cc1ccc(O)cc1)C(N)=O)[C@@H](C)O` [Compound A4] (H-K([γGlu-γGlu-C20 diacid])PKPEAPGKDASPEEWNRYYADARHYLNWLTRQR[NMeY]-NH2; N-terminus assumed), the EC50 at human Y5 receptor is 50.1 nM; on human Y2 receptor it was 2 nM. Also, at human Y4 receptor, the “NPY4R pEC50” value was “inactive”.
